Laboratory results: patent US20260109707A1, “HETEROBIFUNCTIONAL COMPOUNDS AND METHODS OF TREATING DISEASE” (Halda Therapeutics OpCo. Inc., priority 2022, published 2026)

Key:
BRD4-BD1 = target: T1, BRD4-BD1 (Homo sapiens, UniProt O60885); assay: bromoKdELECT assay for binding affinity to BRD4-BD1; conditions: binding to BRD4-BD1, Table 4
T1 construct: made in house; host or cells: T7 phage grown in an E. coli host derived from the BL21 strain
Procedure: (§1) Compounds were tested using a bromoKdELECT assay. T7 phage strains displaying bromodomains were grown in parallel in 24-well blocks in an E. coli host derived from the BL21 strain. E. coli were grown to log-phase and infected with T7 phage from a frozen stock (multiplicity of infection=0.4) and incubated with shaking at 32° C. until lysis (90-150 minutes). The lysates were centrifuged (5,000×g) and filtered (0.2 μm) to remove cell debris. Streptavidin-coated magnetic beads were treated with biotinylated small molecule or acetylated peptide ligands for 30 minutes at room temperature to generate affinity resins for bromodomain assays. The liganded beads were blocked with excess biotin and washed with blocking buffer (SeaBlock (Pierce), 1% BSA, 0.05% Tween 20, 1 mM DTT) to remove unbound ligand and to reduce nonspecific phage binding. Binding reactions were assembled by combining bromodomains, liganded affinity beads, and test compounds in 1× binding buffer (17% SeaBlock, 0.33×PBS, 0.04% Tween 20, 0.02% BSA, 0.004% Sodium azide, 7.4 mM DTT). Test compounds were prepared as 1000× stocks in 100% DMSO. Kds were determined using an 11-point 3-fold compound dilution series with one DMSO control point. All compounds for Kd measurements are distributed by acoustic transfer (non-contact dispensing) in 100% DMSO. The compounds were then diluted directly into the assays such that the final concentration of DMSO was 0.09%. All reactions performed in polypropylene 384-well plates. Each was a final volume of 0.02 ml. The assay plates were incubated at room temperature with shaking for 1 hour and the affinity beads were washed with wash buffer (1×PBS, 0.05% Tween 20). The beads were then resuspended in elution buffer (1×PBS, 0.05% Tween […] non-biotinylated affinity ligand) and incubated at room temperature with shaking for 30 minutes. The bromodomain concentration in the eluates was measured by qPCR.

[1] = tested on: T-Rex 293 cell line SC3 cells having increased expression of androgen receptor protein due to exposure to doxycycline; assay: Cellular growth inhibition assay, T-Rex 293 SC3 cells with doxycycline (CellTiter-Glo, 72 hours); type: cell-based; conditions: 72 h, T-Rex 293 SC3 cells with increased androgen receptor expression due to doxycycline (10 ng/mL)
Outline: (§2)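 Doxycycline (10 ng/mL) was either included or omitted to toggle wild-type androgen receptor expression in SC3 cells, a T-Rex 293 clone, grown in stripped-serum, phenol red-free medium. After 72 hours with compound, viable cells were quantified by CellTiter-Glo 2.0.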

[2] = tested on: T-Rex 293 cell line SC3 cells lacking increased expression of androgen receptor protein; assay: Cellular growth inhibition assay, T-Rex 293 SC3 cells without doxycycline (CellTiter-Glo, 72 hours); type: cell-based; conditions: T-Rex 293 cell line SC3 cells not exposed to doxycycline (lacking increased androgen receptor expression)
Outline: as §2

VCaP cells = assay: Cellular growth inhibition assay for VCaP cells (CellTiter-Glo, 72 hours); type: cell-based, human; conditions: Homo sapiens, VCaP, 72 h
Outline: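 Luminescent viability signal after 72 h of compound exposure gave GI50 values by four-parameter nonlinear regression. Compounds were added in 0.5% DMSO to cells plated 24 h earlier at 5000/well in DMEM containing 10% FBS.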

androgen receptor = target: T2, androgen receptor (Homo sapiens, UniProt P10275); assay: Assay for binding affinity to androgen receptor ([3H]methyltrienolone radioligand, cell cytosol); conditions: binding to the androgen receptor, Table 3
T2 sequence (P10275 1-920 T878A): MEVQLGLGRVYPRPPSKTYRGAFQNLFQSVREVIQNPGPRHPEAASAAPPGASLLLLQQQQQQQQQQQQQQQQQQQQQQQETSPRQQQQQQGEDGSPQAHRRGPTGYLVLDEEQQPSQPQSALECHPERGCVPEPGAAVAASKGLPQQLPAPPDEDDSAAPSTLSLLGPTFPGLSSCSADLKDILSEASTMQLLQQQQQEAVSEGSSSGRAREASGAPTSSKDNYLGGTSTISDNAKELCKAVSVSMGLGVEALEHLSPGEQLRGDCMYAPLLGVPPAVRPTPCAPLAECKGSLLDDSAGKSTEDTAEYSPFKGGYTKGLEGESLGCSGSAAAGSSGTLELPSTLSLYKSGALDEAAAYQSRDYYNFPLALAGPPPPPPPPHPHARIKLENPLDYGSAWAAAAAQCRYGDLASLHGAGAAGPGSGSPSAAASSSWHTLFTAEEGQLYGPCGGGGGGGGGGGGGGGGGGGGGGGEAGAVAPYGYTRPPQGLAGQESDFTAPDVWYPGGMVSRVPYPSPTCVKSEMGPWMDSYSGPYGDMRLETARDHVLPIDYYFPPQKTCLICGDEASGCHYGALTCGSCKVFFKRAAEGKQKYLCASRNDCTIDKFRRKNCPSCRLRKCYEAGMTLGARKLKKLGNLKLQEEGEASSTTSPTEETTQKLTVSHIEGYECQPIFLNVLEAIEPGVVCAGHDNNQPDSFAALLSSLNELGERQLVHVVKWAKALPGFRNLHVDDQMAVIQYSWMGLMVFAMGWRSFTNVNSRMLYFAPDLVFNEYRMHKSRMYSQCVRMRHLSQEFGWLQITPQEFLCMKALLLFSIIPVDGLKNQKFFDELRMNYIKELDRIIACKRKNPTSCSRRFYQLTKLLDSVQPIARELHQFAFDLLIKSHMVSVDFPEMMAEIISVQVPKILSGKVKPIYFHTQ
Procedure: Fractions of cell cytosol ([…]) were incubated for 24 hr at 4° C. with 1 nM [^3H]methyltrienolone in the absence or presence of the test compound in a buffer containing 25 mM Hepes-Tris (pH 7.4), 1 mM EDTA, 10 mM Na2MoO4, 2 mM DTT, 5 μM triamcinolone acetonide, and 10% glycerol. Nonspecific binding was determined in the presence of […] testosterone. Following incubation, the samples were filtered rapidly under vacuum through glass fiber filters (GF/B, Packard) presoaked with 0.3% PEI and rinsed several times with ice-cold 50 mM Tris-HCl using a 96-sample cell harvester (Unifilter, Packard). The filters were dried then counted for radioactivity in a scintillation counter (Topcount, Packard) using a scintillation cocktail (Microscint 0, Packard). The results are expressed as a percent inhibition of the control radioligand specific binding. The standard reference compound is testosterone, which is tested in each experiment at several concentrations to obtain a competition curve from which its IC50 is calculated.

BRD4-BD2 = target: T3, BRD4-BD2 (Homo sapiens, UniProt O60885); assay: bromoKdELECT assay for binding affinity to BRD4-BD2; conditions: binding to BRD4-BD2, Table 5
T3 construct: made in house; host or cells: T7 phage grown in an E. coli host derived from the BL21 strain
Procedure: as §1, with “[…])” for “μm)”

Row | Compound | Kd (BRD4-BD1) | GI50 [1] | GI50 ([2]; 72 h) | GI50 (VCaP cells) | Kd (androgen receptor) | Kd (BRD4-BD2) | GI50 [2]
1 | Cc1sc2c(c1C)C(c1ccc(Cl)cc1)=N[C@@H](CC(=O)NCCOCCOCCOCCOCCOC1CCN(c3ccc(C(=O)N[C@H]4CC[C@H](Oc5ccc(C#N)c(Cl)c5)CC4)nn3)CC1)c1nnc(C)n1-2 [I-3, N-[4-(3-chloro-4-cyano-phenoxy)cyclohexyl]-6-[4-[2-[2-[2-[2-[2-[[2-[7-(4-chlorophenyl)-4,5,13-trimethyl-3-thia-1,8,11,12-tetrazatricyclo[8.3.0.0^2,6]trideca-2(6),4,7,10,12-pentaen-9-yl]acetyl]amino]ethoxy]ethoxy]ethoxy]ethoxy]ethoxy]-1-piperidyl]pyridazine-3-carboxamide] | < 50 nM | < 500 nM | 1500 to 3000 nM | < 500 nM |  |  | 
2 | CCNC(=O)C[C@@H]1N=C(c2ccc(N3CCC(CN4CC(N(C)c5ccc(C(=O)N[C@H]6CC[C@H](Oc7ccc(C#N)c(Cl)c7)CC6)nn5)C4)CC3)cc2)c2c(sc(C)c2C)-n2c(C)nnc21 [I-68] |  | > 3000 nM | > 3000 nM | 500 to 1500 nM | 50 to 500 nM |  | 
3 | CCNC(=O)C[C@@H]1N=C(c2ccc(N3CCC(N(C)C4CN(c5ccc(C(=O)N[C@H]6CC[C@H](Oc7ccc(C#N)c(Cl)c7)CC6)nn5)C4)CC3)cc2)c2c(sc(C)c2C)-n2c(C)nnc21 [I-63] |  | < 500 nM | 500 to 1500 nM | < 500 nM | < 50 nM |  | 
4 | CCNC(=O)C[C@@H]1N=C(c2ccc(OCCOCCOCCOC3CCN(c4ccc(C(=O)N[C@H]5CC[C@H](Oc6ccc(C#N)c(Cl)c6)CC5)nn4)CC3)cc2)c2c(sc(C)c2C)-n2c(C)nnc21 [I-9] |  | < 500 nM | 500 to 1500 nM | < 500 nM | < 50 nM |  | 
5 | CCNC(=O)C[C@@H]1N=C(c2ccc(CCCC3CCN(c4ccc(C(=O)N[C@H]5CC[C@H](Oc6ccc(C#N)c(Cl)c6)CC5)nn4)CC3)cc2)c2c(sc(C)c2C)-n2c(C)nnc21 [I-51] | 50 to 500 nM | < 500 nM |  |  |  | < 50 nM | 500 to 1500 nM
